# Data taken from patent US5200409A, “Composition and use of substituted 1,3-dithiolo-and 1,4-dithiinoquinoxalines as an antimicrobial” (The Dow Chemical Company, priority 1992, dated 1993).
# Like-named read-outs stand apart in the source and are kept apart here.
# Key:
# [1] = tested on: Pseudomonas aeruginosa (Pa); assay: Minimum inhibitory concentration (MIC) in nutrient agar; type: cell-based, Pseudomonas aeruginosa ATCC 10145; details: 48 hours
# Method in brief: (§1)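 Each compound is tested by agar incorporation in nutrient agar at two pH values, 6.8 and 8.2, using final concentrations from 500 down to 1.0 ppm. Inoculum: 10^8 CFU/ml applied with a multipoint replicator; plates are read for growth after 48 h incubation at 30° C.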
# [2] = tested on: Klebsiella pneumoniae (Kp); assay: as above; type: cell-based, Klebsiella pneumoniae ATCC 8308
# Method in brief: as §1
# [3] = tested on: Proteus vulgaris (Pv); assay: as above; type: cell-based, Proteus vulgaris ATCC 881
# Method in brief: as §1
# [4] = tested on: Escherichia coli (Ec); assay: as above; type: cell-based, Escherichia coli ATCC 11229
# Method in brief: as §1
# [5] = tested on: Salmonella choleraesuis (Sc); assay: as above; type: cell-based, Salmonella choleraesuis ATCC 10708; details: Salmonella enterica
# Method in brief: as §1
# [6] = tested on: Saccharomyces cerevisiae (Sc); assay: Minimum inhibitory concentration (MIC) in malt yeast agar; type: cell-based, Saccharomyces cerevisiae ATCC 4105; details: read-out: Minimum Inhibitory Concentration, Sc
# Method in brief: (§2)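 Compound dispersed in malt yeast agar at final 500, 250, 100, 50, 25, 10, 5, 2.5, 1.0 and 0 ppm (from 1% acetone/water solution); plates dried 24 h, then inoculated with saline/octylphenoxy polyethoxy ethanol suspensions of 7-day cultures diluted 1:9. Incubated at 30° C; read at 48 h for yeast, 72 h for fungi.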
# [7] = tested on: Candida albicans (Ca); assay: as above; type: cell-based, Candida albicans ATCC 10231; details: read-out: Minimum Inhibitory Concentration, Ca
# Method in brief: as §2
# [8] = tested on: Fusarium oxysporum (Fo); assay: as above; type: cell-based, Fusarium oxysporum ATCC 48112; details: read-out: Minimum Inhibitory Concentration, Fo
# Method in brief: (§3)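 Molten malt yeast agar is dosed with test compound, from a 1% acetone–water stock, to final levels of 500 down to 1.0 ppm, then plated and dried for 24 hours. A replicator then applies fungal suspensions, and plates are read after 72 hours at 30° C.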
# [9] = tested on: Trichoderma viride (Tv); assay: as above; type: cell-based, Trichoderma viride ATCC 8678; details: read-out: Minimum Inhibitory Concentration, Tv
# Method in brief: as §3
# [10] = 48 h, pH 8.2, read-out: Minimum Inhibitory Concentration, Kp
# [11] = pH 6.8, nutrient agar, 30° C., 48 hours, read-out: Minimum Inhibitory Concentration, Kp
# [12] = 48 h, pH 8.2, read-out: Minimum Inhibitory Concentration, Pv
# [13] = 48 h, pH 8.2, read-out: Minimum Inhibitory Concentration, Ec
# [14] = 48 h, pH 8.2, read-out: Minimum Inhibitory Concentration, Sc
# [15] = malt yeast agar, 30° C., 72 hours for fungi
# [16] = 48 h, pH 6.8, read-out: Minimum Inhibitory Concentration, Kp
# [17] = 48 h, pH 6.8, read-out: Minimum Inhibitory Concentration, Pv
# [18] = 48 h, pH 6.8, read-out: Minimum Inhibitory Concentration, Ec
# [19] = 48 h, pH 6.8, read-out: Minimum Inhibitory Concentration, Sc
# [20] = malt yeast agar, 30° C., 48 hours for yeast
SMILES,"MIC ([1]; pH 6.8, 30° C.) [µg/mL]","MIC ([1]; pH 8.2, 30° C.) [µg/mL]","MIC [2, 10] [µg/mL]","MIC [2, 11] [µg/mL]","MIC [3, 12] [µg/mL]","MIC [4, 13] [µg/mL]","MIC [5, 14] [µg/mL]",MIC ([6]; 48 h) [µg/mL],MIC ([7]; 48 h) [µg/mL],"MIC [8, 15] [µg/mL]",MIC ([9]; 72 h) [µg/mL],"MIC [3, 17] [µg/mL]","MIC [4, 18] [µg/mL]","MIC [5, 19] [µg/mL]",MIC ([8]; 72 h) [µg/mL],"MIC [6, 20] [µg/mL]","MIC [7, 20] [µg/mL]",other results
"N#CC1=C(C#N)Sc2nc3cc([N+](=O)[O-])ccc3nc2S1 [A, 7-nitro-1,4-dithiino-(2,3-b)-quinoxaline-2,3-dicarbonitrile]",100,> 500,500,25,> 500,> 500,> 500,2.5,2.5,2.5,10,–,–,–,–,–,–,"MIC ([3]; pH 6.8, nutrient agar, 30° C., 48 hours, read-out: Minimum Inhibitory Concentration, Pv): 50 µg/mL; MIC ([4]; pH 6.8, nutrient agar, 30° C., 48 hours, read-out: Minimum Inhibitory Concentration, Ec): 25 µg/mL; MIC ([5]; pH 6.8, nutrient agar, 30° C., 48 hours, read-out: Minimum Inhibitory Concentration, Sc): 50 µg/mL"
"N#CC1=C(C#N)Sc2nc3cc([N+](=O)[O-])c([N+](=O)[O-])cc3nc2S1 [B, 7,8-Dinitro-1,4-dithiino-(2,3-b)quinoxaline-2,3-dicarbonitrile]",> 500,> 500,> 500,–,> 500,> 500,> 500,25,25,–,50,> 500,250,500,25,–,–,"MIC [2, 16]: 250 µg/mL"
"N#CC1=C(C#N)Sc2nc3cc(Cl)ccc3nc2S1 [C, 7-chloro-1,4-dithiino-(2,3-b)-quinoxaline-2,3-dicarbonitrile]",> 500,> 500,> 500,> 500,> 500,> 500,> 500,–,–,25,250,> 500,> 500,> 500,–,< 10,< 10,–
"Cc1ccc2nc3c(nc2c1)SC(C#N)=C(C#N)S3 [D, 7-Methyl-1,4-dithiino-(2,3-b)quinoxaline-2,3-dicarbonitrile]",> 500,> 500,> 500,> 500,> 500,> 500,> 500,25,50,–,100,> 500,> 500,> 500,50,–,–,–
"N#CC1=C(C#N)Sc2nc3ccccc3nc2S1 [E, 1,4-dithiino-(2,3-b)-quinoxaline-2,3-dicarbonitrile]",> 500,> 500,> 500,500,> 500,> 500,> 500,–,–,–,100,> 500,> 500,> 500,50,< 10,< 10,–
"N#CC(C#N)=C1Sc2nc3ccc([N+](=O)[O-])cc3nc2S1 [L, 6-nitro-1,3-dithiolo-(4,5-b)-quinoxaline-2-ylidene-propanedinitrile]",> 500,> 500,> 500,> 500,> 500,> 500,> 500,–,–,10,–,> 500,> 500,> 500,–,5,10,–
"N#CC(C#N)=C1Sc2nc3cc([N+](=O)[O-])c([N+](=O)[O-])cc3nc2S1 [M, 6,7-dinitro-1,3-dithiolo-(4,5-b)-quinoxaline-2-ylidene-propanedinitrile]",500,> 500,> 500,–,> 500,> 500,> 500,2.5,2.5,–,10,> 500,> 500,500,5,–,–,"MIC [2, 16]: 50 µg/mL"
"N#CC(C#N)=C1Sc2nc3ccc(Cl)cc3nc2S1 [O, 6-chloro-1,3-dithiolo-(4,5-b)-quinoxaline-2-ylidene-propanedinitrile]",> 500,> 500,> 500,> 500,> 500,> 500,> 500,–,–,> 500,–,> 500,> 500,> 500,–,> 500,> 500,"MIC [9, 15]: > 500 µg/mL"
